Entries after “also recorded” stand apart in the source; their conditions may differ.
Legend:
[1] = test system: Pseudomonas syringae pv. tomato DC3000 (Pst); assay: Resistance of Arabidopsis to Pseudomonas syringae pv. tomato DC3000 (bacterial growth); type: in vivo; details: for protection against Pst DC3000: compared with 1 μM
Heterodera schachtii = assay: Arabidopsis cyst nematode infection assay; type: in vivo
M. incognita = assay: Arabidopsis root knot nematode infection assay; type: in vivo, Meloidogyne incognita
MPK3 and MPK6 = assay: MAPK activation phosphorylation in Arabidopsis leaves (immunoblot); type: in vivo, Arabidopsis thaliana; details: leaf infiltration 1 μM; 10 minutes
[2] = test system: FRK1, PHI1, PR-4, AOS, GSTF6, LOX2; assay: Defense gene markers in Arabidopsis leaves after root pretreatment (qRT-PCR); type: in vivo, Arabidopsis thaliana; details: root treatment 1 μM
[3] = test system: EBF1, ERS1, ERS2, ERF1, ACO1, SAUR34, DRM2, AUX1, IAA6 and ARF19; assay: Ethylene- and auxin-responsive gene markers in Arabidopsis leaves after root pretreatment (qRT-PCR); type: in vivo, Arabidopsis thaliana; details: root treatment 1 μM, 24 hpt
tomato suspension cells = type: cell-based
Botrytis cinerea = assay: Resistance of tomato to Botrytis cinerea B05.01 (detached leaflet assay); type: in vivo; details: tomato cv. M82; root immersion 0.01 μM 48 hours before
Pst DC3000 = assay: Resistance of tomato to Pst DC3000 (bacterial growth); type: in vivo, Pseudomonas syringae pv. tomato
[4] = test system: GRAS4, GST, β-1,3-glucanase, AOS2; assay: Defense response genes in tomato leaves after root pretreatment (qRT-PCR); type: in vivo, tomato (Solanum lycopersicum); details: root treatment 10 nM
E. coli = assay: Disk-diffusion assay, E. coli; details: up to 10 mM
B. subtilis = assay: Disk-diffusion assay, B. subtilis; details: up to 10 mM
Aspergillus fumigatus = assay: Disk-diffusion assay, Aspergillus fumigatus; details: up to 10 mM
PR-1 [5] = assay: PR-1 gene expression in barley leaves (qRT-PCR)
Procedure: Barley leaves were sprayed with the indicated concentrations of ascr #18 48 hours before inoculation with Blumeria graminis f. sp. hordei (Bgh). […] Leaves of barley plants were sprayed with water or ascr #18 (1 μM). Plants were inoculated with Bgh 48 hours post treatment. Leaves were collected at 16 hpi and used to extract RNA for qRT-PCR analysis. Data are average±SD (n=3, where n denotes the number of independent samples). (*P≤0.05; **P≤0.005; ***P≤0.0005, two-tailed t-test).
Leaves of barley plants were sprayed with various concentrations of ascr #18 or water (mock) for 48 hours. 48 hours post treatment plants were inoculated with Bgh. Leaves were collected at 16 hpi and used to extract RNA for qRT-PCR analysis.
For barley analyses, RNA extraction from infected barley leaves was performed with TRIzol (Invitrogen) following the manufacturer's instructions. Freshly extracted mRNA was used for cDNA synthesis using QuantiTect Reverse-Transcription kit (Qiagen). cDNA was stored at −20° C. For qRT-PCR, 50 ng of cDNA was used as template in the Applied Biosystems 7500 FAST real time PCR system. Amplifications were performed in 7.5 μL of SYBER green JumpStart Taq ReadyMix (Sigma-Aldrich) with 0.5 pmol oligonucleotides. […] Ubiquitin was used as an endogenous reference gene.

PR-1, FRK1, PHI1, WRKY53 = assay: Defense gene expression in Arabidopsis roots (qRT-PCR)
Procedure: FIG. 18C: Eight days old Arabidopsis seedlings were treated by root bathing using the indicated concentrations of ascr #18. Root samples were collected 6 hours after treatment for RNA extraction. Transcript levels of PHI1, FRK1 and WRKY53 were determined by qRT-PCR and normalized to endogenous UFP (AT4G01000) . *P≤0.05; **P≤0.005; ***P≤0.0005, two-tailed 1-test.
Roots of Arabidopsis seedlings were treated with water (CK) or with various ascr #18 concentrations for 48 hours. Roots were then collected and used to extract RNA for qRT-PCR analysis.
For the RNA analyses in roots, Arabidopsis roots were collected from 20-30 seedlings from each treatment and mRNA was isolated using the Dynabeads mRNA DIRECT Kit (Life Technologies). DNA contamination was removed by treatment with DNase I (Life Technologies). First-strand cDNA was synthesized from 50 ng of mRNA using ProtoScript II Reverse Transcriptase (NEB). […] All assays consisted of three technical replicates for each RNA sample. Data was analyzed using the iCycler iQ Real-Time PCR Detection System Software version 3.0a (Bio-Rad). The Arabidopsis UFP gene (AT4G01000) was used as an endogenous reference gene. PCR was started with an activation and DNA denaturation step (95° C. for 3 minutes), then followed by 40 cycles of 95° C. for 20 seconds and 60° C. for 40 seconds.

PR-1 [6] = assay: PR-1 expression in Arabidopsis leaves (semi-quantitative PCR / qRT-PCR)
PR-1 [7] = assay: PR-1 protein/transcript induction in tobacco leaves (immunoblot, RT-PCR)
Procedure: Four-weeks old tobacco plants were syringe-infiltrated with buffer, SA, or a mixture of SA (50 μM or 500 μM) and decreasing concentration of ascr #18 (10, 0.3, and 0.01 μM). PR-1 was assayed 48 hours after treatment by immunoblot using anti-PR-1 antibody.
PR-1 expression was analyzed 48 hp SA treatment.
To determine whether ascr #18 affects levels of the prototypic SA-responsive PR-1 gene/protein, tobacco plants were treated with varying concentrations of ascr #18 in the presence or absence of SA (FIG. 2).

[8] = test system: Blumeria graminis f. sp. hordei (Bgh); assay: Resistance of barley to Blumeria graminis f. sp. hordei (pustule count); details: barley cv. Golden Promise; leaves sprayed 0.01 μM to 1 μM 48 hours before inoculation; 7 dpi
Procedure: Barley leaves were sprayed with the indicated concentrations of ascr #18 48 hours before inoculation with Blumeria graminis f. sp. hordei (Bgh). Photograph of barley leave segments infected with Bgh were taken at 7 days post inoculation (dpi). FIG. 15C: Provides the number of Bgh pustules counted at 7 dpi. […] Leaves of barley plants were sprayed with water or ascr #18 (1 μM). Plants were inoculated with Bgh 48 hours post treatment. […] Data are average±SD (n=3, where n denotes the number of independent samples). (*P≤0.05; **P≤0.005; ***P≤0.0005, two-tailed t-test).
For barley cv. Golden Promise, 7-days old seedlings were pretreated by spraying with different concentrations of ascr #18. Inoculation with Bgh was done 48 hours post treatment using a detached leaflet assay. Briefly 10 leaves from 5 different plants per treatment were cut and transferred to Petri dishes containing 1% water agar. Leaves were then inoculated with Bgh. Water was used as mock control. Pustules were counted 7 dpi.

PDF1.2 = PDF1.2 expression in Arabidopsis leaves (semi-quantitative PCR / qRT-PCR)
[9] = test system: Pseudomonas syringae pv. tabaci; assay: Resistance of tobacco to Pseudomonas syringae pv. tabaci (bacterial growth); details: for resistance to P. syringae pv tabaci: 2 dpi
[10] = root pretreatment 10 nM, 48 hours
[11] = root treatment of seedlings, various concentrations, 48 hours
[12] = leaf infiltration 0.01 μM or 0.3 μM, 24 hpt, qRT-PCR
[13] = leaf pretreatment by syringe infiltration, 0.01, 0.3, and 10 μM

Question: `CC1O[C@@H](O[C@@H](C)CCCCCCCCC(=O)O)C(O)C[C@H]1O` (stereo in doubt) [ascr #18, (10R)-(3′R,5′R-dihydroxy-6′S-methyl-(2H)-tetrahydropyran-2-yloxy)-undecanoic Acid] was tested. Which “resistance to Pst, co-treatment” value ([1]; ascr #18 0.3 μM with SA 50 μM, leaf infiltration) did it give?
Answer: further enhanced resistance; also recorded: strongly enhanced resistance

Question: And the “concentration for best/maximal protection against leaf infection (Pst; bacterial and viral pathogens)” value ([1]; in vivo)?
Answer: 1 µM

Question: And the “resistance to virulent Pst DC3000 (bacterial growth)” value ([1]; leaf syringe infiltration 0.3 μM 24 hours prior to inoculation, 3 dpi)?
Answer: enhanced resistance; also recorded: low level of protection

Question: And the “resistance to P. syringae pv tomato” value ([1]; root immersion 0.3 μM, 1 μM, or 5 μM 24 hours prior to inoculation)?
Answer: enhanced resistance

Question: And the “protection against Pst DC3000” value ([1]; root immersion 0.3 μM)?
Answer: less effective

Question: What about the “protection against Pst DC3000 (bacterial growth)” value ([1]; root immersion 1 μM, 24 hours before inoculation, 3 dpi) of the same compound?
Answer: strong protection; also recorded: reduced growth

Question: What about the “protection against Pst DC3000” value ([1]; root immersion 5 μM) of the same compound?
Answer: less effective

Question: And the “concentration providing best protection against root infection” value (Heterodera schachtii; Arabidopsis, cyst nematodes)?
Answer: 10 nM

Question: What about the “resistance to H. schachtii (females counted)” value (Heterodera schachtii; media containing 50 nM or 600 nM, 19 dpi) of the same compound?
Answer: enhances resistance

Question: What about the “infection with cyst nematode H. schachtii” value (Heterodera schachtii; [10]) of the same compound?
Answer: significantly reduced infection

Question: What about the “concentration providing best protection against root infection” value (M. incognita; Arabidopsis, root knot nematodes) of the same compound?
Answer: 10 nM

Question: And the “infection with root knot nematode M. incognita” value (M. incognita; [10])?
Answer: significantly reduced infection

Question: What about the “phosphorylation of MPK3 and MPK6” value (MPK3 and MPK6) of the same compound?
Answer: transient increase in the phosphorylation of both MAPKs; also recorded: Activation

Question: What about the “FRK1 expression in leaves” value ([2]; 6 hpt) of the same compound?
Answer: induced

Question: What about the “AOS expression in leaves” value ([2]; 24 hpt) of the same compound?
Answer: increased expression

Question: And the “GSTF6 expression in leaves” value ([2]; 24 hpt)?
Answer: increased expression

Question: What about the “LOX2 expression in leaves” value ([2]; 24 hpt) of the same compound?
Answer: increased expression

Question: And the “PHI1 expression in leaves” value ([2]; 24 hpt)?
Answer: induced

Question: What about the “PR-4 expression in leaves” value ([2]; 24 hpt) of the same compound?
Answer: increased expression

Question: What about the “auxin or ET-regulated defense signaling” value ([3]; 10 genes) of the same compound?
Answer: does not strongly affect auxin or ET-regulated defense signaling

Question: And the SAUR34 expression ([3]; only one of 10 tested genes)?
Answer: enhanced

Question: And the “media alkalinization (pH of culture medium)” value (tomato suspension cells)?
Answer: induced media alkalinization in a dose-dependent manner

Question: And the “resistance to B. cinerea (lesion size 3 dpi)” value (Botrytis cinerea)?
Answer: did not have a significant effect

Question: And the “growth of Pst DC3000 in tomato leaves” value (Pst DC3000; higher concentrations than 10 nM)?
Answer: less effective

Question: And the “growth of Pst DC3000 in tomato leaves” value (Pst DC3000; tomato cv. M82, root treatment 10 nM 48 hours before, 4 dpi)?
Answer: significantly reduced the growth

Question: What about the “β-1,3-glucanase transcript level in leaves” value ([4]; 24 hpt) of the same compound?
Answer: enhanced levels

Question: And the “AOS2 transcript level in leaves” value ([4]; 48 hpt)?
Answer: significantly elevated

Question: And the “GRAS4 transcript level in leaves” value ([4]; 48 hpt)?
Answer: significantly elevated

Question: And the “GST transcript level in leaves” value ([4]; 48 hpt)?
Answer: significantly elevated

Question: And the “β-1,3-glucanase transcript level in leaves” value ([4]; 48 hpt)?
Answer: significantly elevated

Question: What about the growth inhibition (E. coli) of the same compound?
Answer: no growth inhibition

Question: And the growth inhibition (B. subtilis)?
Answer: no growth inhibition

Question: What about the growth inhibition (Aspergillus fumigatus) of the same compound?
Answer: no growth inhibition

Question: What about the “PR-1 gene expression, with Bgh inoculation” value (PR-1 [5]; 1 μM ascr #18 plus inoculation with Bgh, 16 hpi) of the same compound?
Answer: further enhanced; also recorded: even higher levels of PR-1 expression

Question: What about the PR-1 gene expression (PR-1 [5]; barley leaves sprayed, 1 μM, 48 hours) of the same compound?
Answer: induces PR-1 gene expression; also recorded: induced PR-1 transcript accumulation; also recorded: induction of PR-1 gene

Question: And the “root expression of FRK1” value (PR-1, FRK1, PHI1, WRKY53; 10 or 50 nM, within 6 hours)?
Answer: induced

Question: And the “root expression of PHI1” value (PR-1, FRK1, PHI1, WRKY53; 10 or 50 nM, within 6 hours)?
Answer: induced

Question: And the “root expression of WRKY53” value (PR-1, FRK1, PHI1, WRKY53; 10 or 50 nM, within 6 hours)?
Answer: induced

Question: And the “FRK1 expression in roots” value (PR-1, FRK1, PHI1, WRKY53; [11])?
Answer: induces; also recorded: induction

Question: What about the “PR-1 expression in roots” value (PR-1, FRK1, PHI1, WRKY53; [11]) of the same compound?
Answer: induces; also recorded: induction

Question: What about the PR-1 expression (PR-1 [6]; ascr #18 (0.01 or 0.3 μM) alone, test leaves or roots treated, 24 hours) of the same compound?
Answer: induces PR-1 expression even in the absence of SA; also recorded: altered

Question: And the “SA-mediated PR-1 expression” value (PR-1 [6]; ascr #18 co-applied with SA (50 μM) to leaves or applied through roots)?
Answer: suppresses SA-mediated PR-1 expression

Question: What about the PR-1 transcripts (PR-1 [6]; [12]) of the same compound?
Answer: elevated; also recorded: Induction

Question: And the “PR-1 expression in Arabidopsis” value (PR-1 [6]; [13])?
Answer: +

Question: And the “PR-1 accumulation in presence of SA” value (PR-1 [7]; ascr #18 0.01 or 0.3 μM with SA 500 μM or 50 μM, leaf infiltration, vs SA only)?
Answer: enhanced PR-1 accumulation

Question: And the PR-1 protein accumulation (PR-1 [7]; tobacco leaves, ascr #18 alone 0.01, 0.3, or 10 μM, syringe infiltration, 48 hours)?
Answer: did not induce PR-1 protein accumulation

Question: What about the “resistance to Bgh (number of pustules)” value [8] of the same compound?
Answer: enhances basal resistance; also recorded: increased resistance to Bgh; also recorded: enhanced resistance

Question: What about the “PDF1.2 expression, systemic” value (PDF1.2; a subset of leaves treated) of the same compound?
Answer: induced PDF1.2 expression in untreated, as well as treated, leaves

Question: And the PDF1.2 expression (PDF1.2; ascr #18 (0.01 or 0.3 μM), test leaves or roots treated, 24 hours)?
Answer: induces expression of the prototypic JA-responsive PDF1.2 gene; also recorded: altered

Question: What about the PDF1.2 transcripts (PDF1.2; [12]) of the same compound?
Answer: elevated; also recorded: Induction

Question: And the “PDF1.2 expression in Arabidopsis” value (PDF1.2; [13])?
Answer: +

Question: And the “resistance to P. syringae pv tabaci, SA added” value ([9]; SA 50 μM infiltrated 24 hours after ascr #18 0.01 μM pretreatment)?
Answer: no further enhancement of resistance

Question: And the “resistance to virulent P.t. (bacterial growth)” value ([9]; ascr #18 0.01 μM alone, leaves (infiltration) or roots (immersion) 24 hours before inoculation, 48 hpi)?
Answer: sufficient to enhance resistance; also recorded: enhanced resistance

Question: What about the “virulent P.t. growth, both compounds” value ([9]; ascr #18 and SA provided simultaneously, vs single treatment) of the same compound?
Answer: no greater reduction

Question: What about the “resistance to P. syringae pv tabaci” value ([9]; leaf syringe infiltration 0.01 μM, inoculation 48 hours after) of the same compound?
Answer: enhanced resistance

Question: What about the “resistance to P. syringae pv tabaci” value ([9]; root immersion, ascr #18 0.01 μM or 0.03 μM) of the same compound?
Answer: enhances resistance

Question: And the “resistance to P. syringae pv tabaci” value ([9]; spray 0.01 μM 48 hours before inoculation)?
Answer: enhances resistance

Question: What about the “resistance to P. syringae pv tabaci, combination” value ([9]; spray ascr #18 0.01 μM combined with SA 50 μM) of the same compound?
Answer: did not further increase resistance
